Laboratory results taken from patent US11478440B2, “Combination of Elafibranor or derivatives thereof with an anti-NASH, anti-fibrotic or anti-cholestatic agent” (GENFIT, priority 2017, dated 2022).

Legend:
[1] = system: mice with NASH (CDFF-fed mice); assay: Mouse fibrosing-NASH model (CDFF diet, 8 weeks); format: in vivo, C57Bl/6J mice; conditions: elafibranor 3 mg/kg/day
Experimental: The preventive effects of the combinations of elafibranor with selonsertib, GKT-831 or GS-0976 were assessed in mice fed a choline-deficient, […] diet (CDAA) supplemented with 2% cholesterol, 30% milk fat diet and high fructose corn syrup 55 (55% fructose/45% glucose for a final concentration of 42 g/L) in drinking water (Mells et al J Nutr Biochem 2015) (CDFF diet). 5-6 weeks old male C57Bl/6J mice were fed a control (CSAA) diet (n=4), CDFF (n=12), or CDFF supplemented with elafibranor (1 or 3 mg/kg/day), selonsertib (30 mg/kg/day), GKT-831 ([…]) alone or in combination (n=8 per group) for 8 weeks.
The body weight, the food and water intake were monitored twice per week. On the last day of treatment, plasma samples were obtained from retro-orbital blood sampling and mice were sacrificed after a 6 h-fasting period. The liver was rapidly excised for biochemical and histological analyses. All animal procedures were performed according to standard protocols and in accordance with the standard recommendations for the proper care and use of laboratory animals.
The liver slices were fixed in a formalin 4% solution. Then, the liver pieces were washed 30 minutes in PBS, and dehydrated in ethanol solutions (successive baths at 70, 80, 95 and 100% ethanol). The liver pieces were incubated in three different baths of Xylene (Honeywell cat #534056), followed by two baths in liquid paraffin (59° C.). Liver pieces were then put into racks that were gently filled with HISTOWAX to completely cover the tissue.
Liver sections were deparaffinized, rehydrated and incubated for 3 minutes in Mayer's Hematoxylin (Microm, cat #F/C0303). Then, the liver sections were rinsed in water and incubated 1 minute in a Eosin Y 0.5% alcoholic (VWR, cat #1.02439.0500) and Erythrosin 0.5% solution (VWR, cat #1.15936.0010), and rinsed in with ethanol. Sections were then incubated for 2 minutes in Safranin, and were eventually dehydrated and mounted using the CV Mount medium (Leica, cat #046430011).
Liver sections were deparaffinized, rehydrated and incubated for 15 minutes in a solution of Fast Green FCF 0.1% (Sigma-Aldrich, cat #F7258) before rinsing in a bath of 0.5% acetic acid (Panreac, cat #131008.1611). Then, the liver sections were rinsed in water and incubated 30 minutes in a solution of 0.1% sirius red (Direct Red 80, Fluka cat #43665) in saturated aqueous picric acid (Sigma-Aldrich cat #P6744). Sections were then dehydrated, and mounted using the CV Mount medium (Leica, cat #14046430011).
A technician blinded to the source of each liver specimen performed histological examinations. Virtual slides were generated using the Pannoramic 250 scanner from 3D Histech. For each animal, a score summarizing the main histological lesions of NASH was attributed according to the NASH Clinical Research Network (Kleiner 2005, Brunt 1999). Briefly, steatosis, lobular inflammation and hepatocyte ballooning were scored. The NAFLD Activity Score (NAS) was established for each individual as the unweighted sum of the steatosis (0-3), lobular inflammation (0-3) and the ballooning (0-2) injury grading.
Using Quant Center software (3D Histech, including Pattern Quant and Histo Quant modules), collagen-stained areas were quantified. Briefly, Pattern Quant was used to detect the tissue and measure its surface. Then, Histo Quant was used to detect the stained collagen content and measure its surface, based on a color threshold method. The fibrosis area was then expressed as the percentage of the collagen surface to the whole tissue per animal.
The hepatic collagen content was determined using the appropriate QuickZyme kit (Total collagen assay, cat #QZB-totcol2). The assay is based on the detection of hydroxyproline, which is a non-proteinogenic amino acid mainly found in the triple helix of collagen. […]

[2] = system: fibrosing NASH-model of rats fed a CDAA+1% cholesterol diet; assay: Chronic CDAA+1% cholesterol rat model: hepatic gene expression (qPCR); format: in vivo, Wistar rats; conditions: liver; GFT505 3 mg/kg/d, OCA 10 mg/kg/d, alone or combined; 12 weeks
Experimental: The preventive effects of Elafibranor alone, OCA alone and the combination of both were assessed in a fibrosing NASH-model of rats fed a CDAA+1% cholesterol diet. 150-175 g male Wistar rats were fed a control (CSAA) diet, CDAA+1% cholesterol diet, or CDAA+1% cholesterol diet supplemented with Elafibranor 1, 3 and 10 mg/kg/day, OCA 10 and 30 mg/kg/day or combined drugs (Elafibranor 1, 3 and 10 mg/kg/day combined to OCA 10 mg/kg/day) for 12 weeks.
The body weight and the food intake were monitored twice per week. On the last day of treatment, rats were sacrificed after a 6 h fasting period. The liver was rapidly excised for biochemical and histological studies.
Total RNA was isolated from rat livers using RNeasy Mini Kit (Qiagen) following manufacturer's instructions. Total RNA were reverse transcribed into cDNA using M-MLV RT (Moloney Murine Leukemia Virus Reverse Transcriptase) (Invitrogen cat #28025) in 1×RT buffer (Invitrogen), 0.5 mM DTT (Invitrogen), 0.18 mM dNTPs (Promega), 200 ng pdN6 (Amersham) and 30 U of RNase inhibitor (Promega).
Quantitative PCR was then carried out using the CFX96 TOUCH Real-Time PCR Detection System (Biorad). Briefly, the PCR reactions were performed in 96-WP format in 25 μl of total volume containing 1 μL of reverse transcription reaction, 0.5 μL of reverse and forward primers (10 pmol each), and 12.5 μl of 2×iQ SYBR Green Supermix (BioRad), using the following primer sequences:
Expression levels were normalized using the expression of RPLP0 gene as a housekeeping gene of reference in samples. For each gene, the standard curves were drawn by selecting the best points (at least three points) in order to have PCR reaction efficiency close to 100% and a correlation coefficient close to 1. Expression levels were determined using the standard curve equation for both the housekeeping gene and the target gene (taking into account the specific PCR efficiency of each target gene).

## 1-[4-methylthiophenyl]-3-[3,5-dimethyl-4-carboxydimethylmethyloxyphenyl]prop-2-en-1-one [Elafibranor]
[1]
  NASH histology (steatosis, hepatic lobular inflammation, NAFLD activity score): improves NASH histology
[1]; alone or with selonsertib 30 mg/kg/day
  hepatic expression of genes related to inflammation, tissue remodeling and fibrogenesis: decreases
[1]; selonsertib 30 mg/kg/day, alone or combined
  hepatic fibrosis (histology, hepatic collagen content, PIIINP and TIMP-1): marked reduction of hepatic fibrosis
[2]
  CCR5 mRNA level (marker of inflammation), percentage over the untreated CDAA + 1% cholesterol rats: 103% ± 51%
  TGFβ1 mRNA level, percentage over the untreated CDAA + 1% cholesterol rats: 94% ± 20%
  TIMP1 mRNA level, percentage over the untreated CDAA + 1% cholesterol rats: 78% ± 23%
  αSMA mRNA level, percentage over the untreated CDAA + 1% cholesterol rats: 66% ± 27%
